Data reported in patent US6235284A, “Synthetic polypeptides belonging to the hepatitis C virus (HCV) and which can be used especially for detecting the latter” (Bio Merieux, priority 1992, dated 2001).

Tests used:
[1] = test system: anti-HCV antibodies binding onto peptide S42G; assay: Inhibition test: inhibition of binding of anti-HCV antibodies onto peptide S42G by preincubation with peptides; parameters: species or system human; settings: inhibitor 0.1 mg/ml
Procedure: To evaluate this hypothesis, inhibition tests, whose usefulness lies in the fact that they allow the formation of the antigen-antibody complex in liquid medium, were carried out, thus dispensing with possible artifacts linked to the adsorption of peptides onto a solid support.
The inhibition experiments were carried out by reaction, in liquid phase, of the HCV sera with the peptides followed by reaction of the remaining antibodies with the peptide adsorbed onto the microplates. The inhibitory peptides are incubated at a concentration of 0.1 mg/ml with sera of appropriate dilution. The rest of the manipulation is identical to that described for the ELISA test.
Peptide S18D (SEQ ID NO:11), or V22G (SEQ ID NO:12), or a mixture of both, is preincubated overnight in the presence of the serum to be tested. The antibodies can bind onto the corresponding sites.

[2] = test system: anti-HCV antibodies (HCV-positive sera); assay: ELISA detection of anti-HCV antibodies in HCV-positive sera with adsorbed peptides; type: binding, human
Outline: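 Peptides were adsorbed at 10 μg/ml for 2 h at 37 °C and blocked with 10% goat serum. Sera, first tested at 1/100, were incubated 1 h at 37 °C, detected with peroxidase anti-human IgG and OPD, and read at OD 492 nm (in places ×10^3), in duplicate.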

V22G: a peptide of 24 amino acids covering sequence 22 to 45 of the CORE protein (VKFPGGGQIVGGVYLLPRRGPRLG)
inhibition ([1]; serum B4, 1/10,000): 83.6% | inhibition ([1]; serum P5, 1/10,000): 83.0% | inhibition ([1]; serum P7, 1/10,000): 81.0% | inhibition ([1]; serum P8, 1/10,000): 77.4% | inhibition ([1]; serum P18, 1/10,000): 48.0% | inhibition ([1]; serum P22, 1/10,000): 65.5% | inhibition ([1]; serum P25, 1/10,000): 71.8% | inhibition ([1]; serum P31, 1/10,000): 39.9% | inhibition ([1]; serum P37, 1/10,000): 88.7% | inhibition ([1]; serum P38, 1/10,000): 70.3% | optical density at 492 nm ([2]; Table 2, line 68, serum not named (below CTS), 1/100): 2.500 OD | optical density at 492 nm ([2]; Table 2, line 69, serum not named (below CTS), 1/1000): 1.605 OD | optical density at 492 nm ([2]; Table 2, line 70, serum not named (below CTS), 1/10000): 0.255 OD | optical density at 492 nm ([2]; Table 2, line 75, serum B4, 1/1000): 1.214 OD | optical density at 492 nm ([2]; Table 2, line 76, serum B4, 1/1000 (so in the source)): 0.144 OD | optical density at 492 nm ([2]; Table 2, serum B1, 1/100): 1.225 OD | optical density at 492 nm ([2]; Table 2, serum B2, 1/100): 0.756 OD | optical density at 492 nm ([2]; Table 2, serum B3, 1/100): 0.329 OD | optical density at 492 nm ([2]; Table 2, serum B4, 1/100): 2.500 OD | optical density at 492 nm ([2]; Table 2, serum B5, 1/100): 0.863 OD | optical density at 492 nm ([2]; Table 2, serum B6, 1/100): 0.749 OD | optical density at 492 nm ([2]; Table 2, serum B7, 1/100): 2.102 OD | optical density at 492 nm ([2]; Table 2, serum B8, 1/100): 0.358 OD | optical density at 492 nm ([2]; Table 2, serum B9, 1/100): 2.082 OD | optical density at 492 nm ([2]; Table 2, serum B10, 1/100): 0.225 OD | optical density at 492 nm ([2]; Table 2, serum B11, 1/100): 0.616 OD | optical density at 492 nm ([2]; Table 2, serum B12, 1/100): 1.017 OD | optical density at 492 nm ([2]; Table 2, serum B13, 1/100): 0.304 OD | optical density at 492 nm ([2]; Table 2, serum B14, 1/100): 0.186 OD | optical density at 492 nm ([2]; Table 2, serum B15, 1/100): 0.954 OD | optical density at 492 nm ([2]; Table 2, serum B16, 1/100): 2.500 OD | optical density at 492 nm ([2]; Table 2, serum CTS, 1/100): 2.500 OD | optical density at 492 nm ([2]; Table 2, serum CTS, 1/1000): 1.155 OD | optical density at 492 nm ([2]; Table 2, serum CTS, 1/10000): 0.043 OD | optical density at 492 nm ([2]; Table 2, serum P1, 1/100): 0.426 OD | optical density at 492 nm ([2]; Table 2, serum P2, 1/100): 0.290 OD | optical density at 492 nm ([2]; Table 2, serum P3, 1/100): 0.503 OD | optical density at 492 nm ([2]; Table 2, serum P4, 1/100): 1.739 OD | optical density at 492 nm ([2]; Table 2, serum P5, 1/100): 2.500 OD | optical density at 492 nm ([2]; Table 2, serum P5, 1/1000): 2.293 OD | optical density at 492 nm ([2]; Table 2, serum P5, 1/10000): 0.578 OD | optical density at 492 nm ([2]; Table 2, serum P6, 1/100): 0.000 OD | optical density at 492 nm ([2]; Table 2, serum P7, 1/100): 2.500 OD | optical density at 492 nm ([2]; Table 2, serum P7, 1/1000): 1.590 OD | optical density at 492 nm ([2]; Table 2, serum P7, 1/10000): 0.237 OD | optical density at 492 nm ([2]; Table 2, serum P8, 1/100): 2.241 OD | optical density at 492 nm ([2]; Table 2, serum P8, 1/1000): 0.476 OD | optical density at 492 nm ([2]; Table 2, serum P8, 1/10000): 0.049 OD | optical density at 492 nm ([2]; Table 2, serum P9, 1/100): 0.008 OD | optical density at 492 nm ([2]; Table 2, serum P10, 1/100): 0.026 OD | optical density at 492 nm ([2]; Table 2, serum P11, 1/100): 2.500 OD | optical density at 492 nm ([2]; Table 2, serum P12, 1/100): 2.500 OD | optical density at 492 nm ([2]; Table 2, serum P12, 1/1000): 2.500 OD | optical density at 492 nm ([2]; Table 2, serum P12, 1/10000): 0.106 OD | optical density at 492 nm ([2]; Table 2, serum P13, 1/100): 0.013 OD | optical density at 492 nm ([2]; Table 2, serum P14, 1/100): 1.778 OD | optical density at 492 nm ([2]; Table 2, serum P15, 1/100): 1.810 OD | optical density at 492 nm ([2]; Table 2, serum P16, 1/100): 2.500 OD | optical density at 492 nm ([2]; Table 2, serum P17, 1/100): 1.832 OD | optical density at 492 nm ([2]; Table 2, serum P18, 1/100): 2.500 OD | optical density at 492 nm ([2]; Table 2, serum P18, 1/1000): 0.598 OD | optical density at 492 nm ([2]; Table 2, serum P18, 1/10000): 0.072 OD | optical density at 492 nm ([2]; Table 2, serum P19, 1/100): 0.010 OD | optical density at 492 nm ([2]; Table 2, serum P20, 1/100): 2.249 OD | optical density at 492 nm ([2]; Table 2, serum P21, 1/100): 2.272 OD | optical density at 492 nm ([2]; Table 2, serum P22, 1/100): 2.500 OD | optical density at 492 nm ([2]; Table 2, serum P22, 1/1000): 0.702 OD | optical density at 492 nm ([2]; Table 2, serum P22, 1/10000): 0.088 OD | optical density at 492 nm ([2]; Table 2, serum P23, 1/100): 0.015 OD | optical density at 492 nm ([2]; Table 2, serum P24, 1/100): 0.579 OD | optical density at 492 nm ([2]; Table 2, serum P25, 1/100): 2.252 OD | optical density at 492 nm ([2]; Table 2, serum P25, 1/1000): 0.695 OD | optical density at 492 nm ([2]; Table 2, serum P25, 1/10000): 0.089 OD | optical density at 492 nm ([2]; Table 2, serum P26, 1/100): 2.500 OD | optical density at 492 nm ([2]; Table 2, serum P26, 1/1000): 1.541 OD | optical density at 492 nm ([2]; Table 2, serum P26, 1/10000): 0.199 OD | optical density at 492 nm ([2]; Table 2, serum P27, 1/100): 1.600 OD | optical density at 492 nm ([2]; Table 2, serum P28, 1/100): 2.500 OD | optical density at 492 nm ([2]; Table 2, serum P29, 1/100): 0.005 OD | optical density at 492 nm ([2]; Table 2, serum P30, 1/100): 2.500 OD | optical density at 492 nm ([2]; Table 2, serum P31, 1/100): 2.500 OD | optical density at 492 nm ([2]; Table 2, serum P31, 1/1000): 2.500 OD | optical density at 492 nm ([2]; Table 2, serum P31, 1/10000): 0.847 OD | optical density at 492 nm ([2]; Table 2, serum P32, 1/100): 1.639 OD | optical density at 492 nm ([2]; Table 2, serum P33, 1/100): 1.987 OD | optical density at 492 nm ([2]; Table 2, serum P34, 1/100): 1.618 OD | optical density at 492 nm ([2]; Table 2, serum P35, 1/100): 1.504 OD | optical density at 492 nm ([2]; Table 2, serum P36, 1/100): 1.226 OD | optical density at 492 nm ([2]; Table 2, serum P37, 1/100): 2.500 OD | optical density at 492 nm ([2]; Table 2, serum P37, 1/1000): 0.865 OD | optical density at 492 nm ([2]; Table 2, serum P37, 1/10000): 0.128 OD | optical density at 492 nm ([2]; Table 2, serum P38, 1/100): 2.500 OD | optical density at 492 nm ([2]; Table 2, serum P38, 1/1000): 1.582 OD | optical density at 492 nm ([2]; Table 2, serum P38, 1/10000): 0.057 OD | optical density at 492 nm ([2]; Table 2, serum P39, 1/100): 1.835 OD | optical density at 492 nm ([2]; Table 2, serum P40, 1/100): 2.500 OD | optical density at 492 nm ([2]; Table 2, serum P41, 1/100): 2.218 OD | optical density at 492 nm ([2]; Table 2, serum P42, 1/100): 0.000 OD | reactivity towards HCV-positive sera ([2]; in words): carry one or more epitopes
